# Results reported in patent US11957684B2, “Treatment of heavy menstrual bleeding associated with uterine fibroids” (Sumitomo Pharma Switzerland GmbH, priority 2016, dated 2024).
# Like-named read-outs stand apart in the source and are kept apart here.
# How the values were obtained:
# [1] = tested on: endometriosis-associated pain; format: in vivo, human; conditions: 3.75 mg sc/4 wk
# Protocol: Subjects assessed and recorded their own quality of life (QOL) using the EHP-30 once a month during the study visit. As used in the examples, the VAS score was evaluated using a 100 mm scale. For pain intensity, the scale was anchored by “no pain” (score of 0) and “pain as bad as you can imagine” (score of 100). […] The above items were evaluated using a patient diary that was distributed by the sponsor. Subjects filled out the patient diary every day during the treatment period or until early termination. If taking prohibited analgesics, subjects recorded this fact in the patient diary along with the accompanying pain symptoms before use of analgesics. As used in the examples, pain during menstruation and pelvic pain unrelated to menstruation were evaluated using scores on the M-B&B and B&B. The M-B&B scores were recorded by subjects on the patient diary supplied by the sponsor. Subjects filled out the patient diary every day during the treatment period or until early termination. If taking prohibited analgesics, subjects recorded this fact in the patient diary along with the accompanying pain symptoms before use of analgesics. The investigator or subinvestigator assessed each patient's pain through interviews and filled out a B&B once a month. The items that were assessed are shown below. The M-B&B score included: dysmenorrhea (severe, moderate, mild, no pain, or no menstruation); pelvic pain (severe, moderate, mild, or no pain); deep dyspareunia (severe, moderate, mild, no pain, or no intercourse). The B&B score included: dysmenorrhea (severe, moderate, mild, none, or not applicable); dyspareunia (severe, moderate, mild, none, or not applicable); pelvic pain (severe, moderate, mild, or none); pelvic tenderness (severe, moderate, mild, or none); and induration (severe, moderate, mild, or none). As used in the examples, the EHP-30 score was obtained by subjects assessing and recording their own QOL using the EHP-30 questionnaire.
# [2] = tested on: LH, FSH, estradiol (E2), progesterone (P), CA125; test: Example 8A: serum LH, FSH, E2, P and CA125; format: in vivo, human
# From the text: Study participants were premenopausal (≥20 years) Japanese women with endometriosis (EM)-associated pain who completed a preceding 12-week study and were eligible to continue for an additional 12-week treatment were enrolled. The participants has confirmed normal regular menstrual cycles (25 to 38 days per cycle) and diagnosed to have EM and EM-related dysmenorrhea and pelvic pain of at least moderate severity as determined by the physician B&B scale. The primary endpoint was the safety including assessment of change in bone mineral density (BMD) using dual energy x-ray absorptiometry, adverse events, vital signs, weight, 12-lead electrocardiograms, and clinical laboratory tests. […] Baseline characteristics were similar between randomized patients and all patients who entered the extension study.
# [3] = end of treatment, listed as leuprorelin
compound,measurement,setting,value
"CCNC(=O)[C@@H]1CCCN1C(=O)[C@H](CCCNC(=N)N)NC(=O)[C@H](CC(C)C)NC(=O)[C@@H](CC(C)C)NC(=O)[C@H](Cc1ccc(O)cc1)NC(=O)[C@H](CO)NC(=O)[C@H](Cc1c[nH]c2ccccc12)NC(=O)[C@H](Cc1c[nH]cn1)NC(=O)[C@@H]1CCC(=O)N1 [leuprolide acetate, reference compound]","change from baseline in mean VAS, dysmenorrhea",[1]; Day 1-28,−9.985±15.7027 mm
same,"change from baseline in mean VAS, dyspareunia",[1]; Day 1-28,−3.126±17.0520 mm
same,"change from baseline in mean VAS, pelvic pain",[1]; Day 1-28,−4.282±7.3628 mm
same,"mean VAS score, dysmenorrhea",[1]; Day 1-28,17.133±19.4179 mm
same,"mean VAS score, dyspareunia",[1]; Day 1-28,7.288±16.2960 mm
same,"mean VAS score, pelvic pain",[1]; Day 1-28,10.899±14.8866 mm
same,"change from baseline in mean VAS, dysmenorrhea",[1]; Day 57-84,−27.558±19.9878 mm
same,"change from baseline in mean VAS, dyspareunia",[1]; Day 57-84,−6.752±10.5824 mm
same,"change from baseline in mean VAS, pelvic pain",[1]; Day 57-84,−10.364±10.4428 mm
same,"mean VAS score, dysmenorrhea",[1]; Day 57-84,0.000±0.0000 mm
same,"mean VAS score, dyspareunia",[1]; Day 57-84,5.478±10.7612 mm
same,"mean VAS score, pelvic pain",[1]; Day 57-84,5.013±12.0454 mm
same,"change from baseline in mean VAS, dysmenorrhea",[1]; Day 141-168,−28.373±20.7287 mm
same,"change from baseline in mean VAS, dyspareunia",[1]; Day 141-168,−4.953±16.9523 mm
same,"change from baseline in mean VAS, pelvic pain",[1]; Day 141-168,−13.804±12.8288 mm
same,"mean VAS score, dysmenorrhea",[1]; Day 141-168,0.000±0.0000 mm
same,"mean VAS score, dyspareunia",[1]; Day 141-168,5.565±12.5556 mm
same,"mean VAS score, pelvic pain",[1]; Day 141-168,2.167±5.1999 mm
same,"change from baseline in EHP-30, Self-image",[1]; Week 24,−9.42±15.553
same,"change from baseline in EHP-30, control & powerlessness",[1]; Week 24,−24.80±23.839
same,"change from baseline in EHP-30, emotional well-being",[1]; Week 24,−12.37±18.332
same,"change from baseline in EHP-30, pain",[1]; Week 24,−26.38±20.341
same,"change from baseline in EHP-30, social support",[1]; Week 24,−10.46±17.923
same,"change from baseline in mean B&B score, dysmenorrhea",[1]; Week 24,−2.1±0.49
same,"change from baseline in mean B&B score, dyspareunia",[1]; Week 24,−0.5±0.88
same,"change from baseline in mean B&B score, induration",[1]; Week 24,−0.8±0.82
same,"change from baseline in mean B&B score, pelvic pain",[1]; Week 24,−1.2±0.72
same,"change from baseline in mean B&B score, pelvic tenderness",[1]; Week 24,−1.1±0.78
same,"subjects without pain in B&B score, dysmenorrhea",[1]; Week 24,100%
same,"subjects without pain in B&B score, dyspareunia",[1]; Week 24,70.6%
same,"subjects without pain in B&B score, induration",[1]; Week 24,75.4%
same,"subjects without pain in B&B score, pelvic pain",[1]; Week 24,68.9%
same,"subjects without pain in B&B score, pelvic tenderness",[1]; Week 24,70.5%
same,"change from baseline in maximum M-B&B score, dysmenorrhea",[1]; end of treatment,−1.9±0.69
same,"change from baseline in maximum M-B&B score, dyspareunia",[1]; end of treatment,−0.4±0.78
same,"change from baseline in maximum M-B&B score, pelvic pain",[1]; end of treatment,−1.3±0.82
same,"change from baseline in maximum VAS, dysmenorrhea",[1]; end of treatment,−51.8±27.01 mm
same,"change from baseline in maximum VAS, dyspareunia",[1]; end of treatment,−10.3±19.76 mm
same,"change from baseline in maximum VAS, pelvic pain",[1]; end of treatment,−46.8±26.29 mm
same,"change from baseline in mean M-B&B score, deep dyspareunia",[1]; end of treatment,−0.208±0.5604
same,"change from baseline in mean M-B&B score, dysmenorrhea",[1]; end of treatment,−1.160±0.4802
same,"change from baseline in mean M-B&B score, pelvic pain",[1]; end of treatment,−0.483±0.4860
same,"change from baseline in mean VAS, dysmenorrhea",[1]; end of treatment,−26.944±19.9212 mm
same,"change from baseline in mean VAS, dyspareunia",[1]; end of treatment,−4.593±15.0878 mm
same,"change from baseline in mean VAS, pelvic pain",[1]; end of treatment,−12.552±12.5609 mm
same,change from baseline in mean score of amount of bleeding (0 to 5),[1]; end of treatment,−2.320±0.7281
same,"change in proportion of days without pain (M-B&B), deep dyspareunia",[1]; end of treatment,21.76±43.266%
same,"change in proportion of days without pain (M-B&B), dysmenorrhea",[1]; end of treatment,80.29±23.327%
same,"change in proportion of days without pain (M-B&B), pelvic pain",[1]; end of treatment,33.42±34.007%
same,"change in proportion of days without pain (VAS), dysmenorrhea",[1]; end of treatment,82.09±24.051%
same,"change in proportion of days without pain (VAS), dyspareunia",[1]; end of treatment,21.76±43.266%
same,"change in proportion of days without pain (VAS), pelvic pain",[1]; end of treatment,40.70±33.342%
same,"mean VAS score, dysmenorrhea",[1]; end of treatment,0.174±1.1623 mm
same,"mean VAS score, dyspareunia",[1]; end of treatment,4.913±10.6249 mm
same,"mean VAS score, pelvic pain",[1]; end of treatment,2.629±5.5783 mm
same,subjects who achieved amenorrhea,[1]; end of treatment,97.5%
same,"subjects without pain in M-B&B score, dysmenorrhea",[1]; end of treatment,97.5%
same,"subjects without pain in M-B&B score, dyspareunia",[1]; end of treatment,56.5%
same,"subjects without pain in M-B&B score, pelvic pain",[1]; end of treatment,63.8%
same,"subjects without pain in VAS score, dysmenorrhea",[1]; end of treatment,97.5%
same,"subjects without pain in VAS score, dyspareunia",[1]; end of treatment,56.5%
same,"subjects without pain in VAS score, pelvic pain",[1]; end of treatment,56.8%
same,"change from baseline in mean VAS, pelvic pain",[1]; [3],−12.552 mm
same,"subjects without pain in VAS score, pelvic pain",[1]; [3],57%
same,median change in serum E2 from baseline,"[2]; 3.75 mg sc/4 wk, Week 24",-40.0 pg/mL
same,median change in serum FSH from baseline,"[2]; 3.75 mg sc/4 wk, Week 24",−2.730 mIU/mL
same,median change in serum LH from baseline,"[2]; 3.75 mg sc/4 wk, Week 24",−3.140 mIU/mL
same,median change in serum progesterone (P) from baseline,"[2]; 3.75 mg sc/4 wk, Week 24",-0.070 ng/mL
same,percent change from baseline in CA125 concentration,"[2]; 3.75 mg sc/4 wk, Week 24",−54.15±46.359%
same,subjects with CA125 less than or equal to 35 U/mL,"[2]; 3.75 mg sc/4 wk, Week 24",88.9%
same,week at which median serum E2 decreased to LLQ,"[2]; Compound 1 40 mg, leuprolide acetate 3.75 mg/4 wk",4 Week
